Reference: ChEMBL document CHEMBL1124522, “Synthesis and antitumor activity of 5-deaza-5,6,7,8-tetrahydrofolic acid and its N10-substituted analogues” (J Med Chem, 1989)
Values joined by “and” are separate entries in the source; they are usually repeats but may differ in a detail not shown here. Equal entries are not always repeated.

Experiments:
[1] = molecular target: T1, Folylpolyglutamate synthase, mitochondrial (Mus musculus) (UniProt P48760); assay: Apparent catalytic rate folyl-poly-glutamate synthetase
T1 sequence (whole entry): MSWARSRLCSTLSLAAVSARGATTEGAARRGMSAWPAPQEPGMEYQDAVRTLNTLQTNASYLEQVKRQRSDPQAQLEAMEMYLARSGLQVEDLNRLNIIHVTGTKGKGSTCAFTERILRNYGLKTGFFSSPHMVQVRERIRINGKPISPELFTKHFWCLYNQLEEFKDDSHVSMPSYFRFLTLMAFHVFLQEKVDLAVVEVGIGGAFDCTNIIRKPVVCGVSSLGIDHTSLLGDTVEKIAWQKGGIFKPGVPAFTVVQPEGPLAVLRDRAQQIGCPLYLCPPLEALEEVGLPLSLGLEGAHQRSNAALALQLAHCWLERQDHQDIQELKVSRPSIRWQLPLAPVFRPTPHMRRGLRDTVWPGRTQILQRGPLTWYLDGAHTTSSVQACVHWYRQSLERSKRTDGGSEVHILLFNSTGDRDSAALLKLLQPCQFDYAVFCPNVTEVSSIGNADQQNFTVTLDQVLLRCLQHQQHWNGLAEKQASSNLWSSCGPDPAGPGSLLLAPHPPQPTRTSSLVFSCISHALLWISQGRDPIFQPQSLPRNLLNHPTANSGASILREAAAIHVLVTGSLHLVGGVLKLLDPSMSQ

[2] = molecular target: T1, Folylpolyglutamate synthase, mitochondrial (Mus musculus); assay: First order catalytic rate folyl-poly-glutamate synthetase
[3] = molecular target: T1, Folylpolyglutamate synthase, mitochondrial (Mus musculus); assay: Apparent catalytic rate constants (Km) owas determined from mouse liver Folyl-polyglutamate synthase
[4] = molecular target: T1, Folylpolyglutamate synthase, mitochondrial (Mus musculus); assay: First order catalytic rate constants (k) was determined from mouse liver Folyl-polyglutamate synthase
6C3HED [5] = assay: Percent inhibition against 6C3HED lymphosarcoma at dose 100 mg/kg in C3H mice; assay type: functional, Mus musculus
6C3HED [6] = assay: Percent inhibition against 6C3HED lymphosarcoma at dose 12.5 mg/kg in C3H mice; assay type: functional, Mus musculus
6C3HED [7] = assay: Percent inhibition against 6C3HED lymphosarcoma at dose 200 mg/kg in C3H mice; assay type: functional; details: Mus musculus
6C3HED [8] = assay: Percent inhibition against 6C3HED lymphosarcoma at dose 25 mg/kg in C3H mice; assay type: functional, Mus musculus
6C3HED [9] = assay: Percent inhibition against 6C3HED lymphosarcoma at dose 50 mg/kg in C3H mice; assay type: functional, Mus musculus
[10] = In vivo anti tumor activity (toxic/total) at dose 50 mg/kg in C3H mice with transplantable murine solid tumor 6C3HED lymphosarcoma, doses administered intraperitoneally on days 1,3,5,7 and 9;Compound was tested on 10 mice.; assay type: functional, Mus musculus; details: route intraperitoneal
[11] = In vivo antitumor activity (toxic/total) at dose 100 mg/kg in C3H mice with transplantable murine solid tumor C3H mammary adenocarcinoma, doses administered intraperitoneally on days 1,3,5,7 and 9;Compound was tested on 10 mice.; assay type: functional, Mus musculus; details: route intraperitoneal
[12] = In vivo antitumor activity (toxic/total) at dose 12.5 mg/kg in C3H mice with transplantable murine solid tumor C3H mammary adenocarcinoma, doses administered intraperitoneally on days 1,3,5,7 and 9;Compound was tested on 10 mice.; assay type: functional, Mus musculus; details: route intraperitoneal
[13] = In vivo antitumor activity (toxic/total) at dose 12.5 mg/kg in C3H mice with transplantable murine solid tumor C3H mammary adenocarcinoma; Compound was tested on 10 mice.; assay type: functional, Mus musculus
[14] = In vivo antitumor activity (toxic/total) at dose 25 mg/kg in C3H mice with transplantable murine solid tumor C3H mammary adenocarcinoma, doses administered intraperitoneally on days 1,3,5,7 and 9;Compound was tested on 10 mice.; assay type: functional, Mus musculus; details: route intraperitoneal
[15] = In vivo antitumor activity (toxic/total) at dose 25 mg/kg in C3H mice with transplantable murine solid tumor C3H mammary adenocarcinoma; Compound was tested on 10 mice.; assay type: functional, Mus musculus
[16] = In vivo antitumor activity (toxic/total) at dose 50 mg/kg in C3H mice with transplantable murine solid tumor C3H mammary adenocarcinoma, doses administered intraperitoneally on days 1,3,5,7 and 9;Compound was tested on 10 mice.; assay type: functional, Mus musculus; details: route intraperitoneal
[17] = In vivo antitumor activity (toxic/total) at dose 50 mg/kg in C3H mice with transplantable murine solid tumor C3H mammary adenocarcinoma; Compound was tested on 10 mice.; assay type: functional, Mus musculus
[18] = In vivo antitumor activity (toxic/total) at dose 6.25 mg/kg in C3H mice with transplantable murine solid tumor C3H mammary adenocarcinoma, doses administered intraperitoneally on days 1,3,5,7 and 9;Compound was tested on 10 mice.; assay type: functional, Mus musculus; details: route intraperitoneal
[19] = In vivo antitumor activity (toxic/total) at dose 6.25 mg/kg in C3H mice with transplantable murine solid tumor C3H mammary adenocarcinoma; Compound was tested on 10 mice.; assay type: functional, Mus musculus
[20] = In vivo antitumor avctivity (Toxic/total) at dose 100 mg/kg in C3H mice with transplantable murine solid tumor 6C3HED lymphosarcoma; Compound was tested on 10 mice.; assay type: functional, Mus musculus
[21] = In vivo antitumor avctivity (Toxic/total) at dose 12.5 mg/kg in C3H mice with transplantable murine solid tumor 6C3HED lymphosarcoma; Compound was tested on 10 mice.; assay type: functional, Mus musculus
[22] = In vivo antitumor avctivity (Toxic/total) at dose 25 mg/kg in C3H mice with transplantable murine solid tumor 6C3HED lymphosarcoma; Compound was tested on 10 mice.; assay type: functional, Mus musculus
[23] = In vivo antitumor avctivity (Toxic/total) at dose 50 mg/kg in C3H mice with transplantable murine solid tumor 6C3HED lymphosarcoma; Compound was tested on 10 mice.; assay type: functional, Mus musculus
[24] = In vivo antitumor avctivity (Toxic/total) at dose 6 mg/kg in C3H mice with transplantable murine solid tumor 6C3HED lymphosarcoma; Compound was tested on 10 mice.; assay type: functional, Mus musculus
CCRF-CEM = assay: Compound was tested for its antitumor activity against human lymphoblastic leukemic cells(CCRF-CEM) in vitro; assay type: functional, cell-based
[25] = In vivo anti tumor activity (toxic/total) at dose 200 mg/kg in C3H mice with transplantable murine solid tumor 6C3HED lymphosarcoma, doses administered intraperitoneally on days 1,3,5,7 and 9;Compound was tested on 10 mice.; assay type: functional, Mus musculus; details: route intraperitoneal
[26] = In vivo anti tumor activity (toxic/total) at dose 25 mg/kg in C3H mice with transplantable murine solid tumor 6C3HED lymphosarcoma, doses administered intraperitoneally on days 1,3,5,7 and 9;Compound was tested on 10 mice.; assay type: functional, Mus musculus; details: route intraperitoneal
[27] = Percent inhibition against C3H mammary adenocarcinoma at dose 100 mg/kg administered ip on days 1,3,5,7 and 9 in C3H mice; assay type: functional; details: Mus musculus, route intraperitoneal
[28] = Percent inhibition against C3H mammary adenocarcinoma at dose 12.5 mg/kg administered ip on days 1,3,5,7 and 9 in C3H mice; assay type: functional; details: Mus musculus, route intraperitoneal
[29] = Percent inhibition against C3H mammary adenocarcinoma at dose 25 mg/kg administered ip on days 1,3,5,7 and 9 in C3H mice; assay type: functional; details: Mus musculus, route intraperitoneal
[30] = Percent inhibition against C3H mammary adenocarcinoma at dose 25 mg/kg in C3H mice;Compound was toxic.; assay type: ADME, organism-based; parameters: dose 25 mg/kg; details: mouse, in vivo
[31] = Percent inhibition against C3H mammary adenocarcinoma at dose 50 mg/kg in C3H mice;Compound was toxic.; assay type: ADME, organism-based; parameters: dose 50 mg/kg; details: mouse, in vivo
[32] = Percent inhibition against C3H mammary adenocarcinoma at dose 6.25 mg/kg administered ip on days 1,3,5,7 and 9 in C3H mice; assay type: functional; details: Mus musculus, route intraperitoneal
[33] = Percent inhibition against C3H mammary adenocarcinoma at dose 6.25 mg/kg in C3H mice; assay type: functional; details: Mus musculus
[34] = In vivo anti tumor activity (toxic/total) at dose 100 mg/kg in C3H mice with transplantable murine solid tumor 6C3HED lymphosarcoma, doses administered intraperitoneally on days 1,3,5,7 and 9;Compound was tested on 9 mice.; assay type: functional, Mus musculus; details: route intraperitoneal
[35] = In vivo anti tumor activity (toxic/total) at dose 12.5 mg/kg in C3H mice with transplantable murine solid tumor 6C3HED lymphosarcoma, doses administered intraperitoneally on days 1,3,5,7 and 9;Compound was tested on 10 mice.; assay type: functional, Mus musculus; details: route intraperitoneal
6C3HED [36] = assay: Percent inhibition against 6C3HED lymphosarcoma at dose 6 mg/kg in C3H mice; assay type: functional; details: Mus musculus
[37] = Percent inhibition against C3H mammary adenocarcinoma at dose 50 mg/kg administered ip on days 1,3,5,7 and 9 in C3H mice; assay type: functional; details: Mus musculus, route intraperitoneal
[38] = molecular target: T1, Folylpolyglutamate synthase, mitochondrial (Mus musculus); assay: Apparent catalytic rate constants (Km) was determined from mouse liver Folyl-polyglutamate synthase

Compound: Nc1nc(=O)c2nc(CNc3ccc(C(=O)N[C@@H](CCC(=O)O)C(=O)O)cc3)cnc2[nH]1
- Km app [1]: 140 µM
- k [2]: 1

Compound: Nc1nc(N)c2nc(CNc3ccc(C(=O)N[C@@H](CCC(=O)O)C(=O)O)cc3)cnc2n1
- Km app [3]: 21 µM
- k [4]: 10.1

Compound: Nc1nc(O)c2c(n1)NCC(CNc1ccc(C(=O)N[C@@H](CCC(=O)O)C(=O)O)cc1)C2 (stereo in doubt; 7a) [listing 1 of 2 here]
- Inhibition (6C3HED [5]; 100 mg/kg): 93%
- inhibition in vivo at 100 mg/kg (6C3HED [5]; Mus musculus, 6C3HED): 100%
- Inhibition (6C3HED [6]): 100% and 34%
- inhibition in vivo at 200 mg/kg (6C3HED [7]): 98%
- Inhibition (6C3HED [8]): 100% and 51%
- Inhibition (6C3HED [9]): 100% and 74%
- tox/total [10]: 0
- tox/total [11]: 0
- tox/total [12]: 0
- tox/total [13]: 10
- tox/total [14]: 0
- tox/total [15]: 10
- tox/total [16]: 0
- tox/total [17]: 10
- tox/total [18]: 0
- tox/total [19]: 3
- tox/total [20]: 9
- tox/total [21]: 1
- tox/total [22]: 3
- tox/total [23]: 6
- tox/total [24]: 0
- IC50 (CCRF-CEM; Homo sapiens, CCRF-CEM): 10 nM
- tox/total [25]: 3
- tox/total [26]: 0
- inhibition in vivo at 100 mg/kg [27]: 94%
- inhibition in vivo at 12.5 mg/kg [28]: 61%
- inhibition in vivo at 25 mg/kg [29]: 64%
- Inhibition [30]: Toxic
- Inhibition [31]: Toxic
- inhibition in vivo at 6.25 mg/kg [32]: 50%
- inhibition in vivo at 6.25 mg/kg [33]: 96%
- tox/total [34]: 0
- tox/total [35]: 0
- inhibition in vivo at 6 mg/kg (6C3HED [36]): 77%
- inhibition in vivo at 50 mg/kg [37]: 81%

Compound: Nc1nc2c(c(=O)[nH]1)C[C@@H](CCc1ccc(C(=O)N[C@@H](CCC(=O)O)C(=O)O)cc1)CN2 (stereo in doubt; form 2) [LOMETREXOL]
- IC50 (CCRF-CEM; ccrf-cem): 5 nM

Compound: Nc1nc2c(c(=O)[nH]1)C[C@@H](CCc1ccc(C(=O)N[C@@H](CCC(=O)O)C(=O)O)cc1)CN2 (stereo in doubt; form 1) [LOMETREXOL]
- IC50 (CCRF-CEM; ccrf-cem): 8 nM

Compound: Nc1nc(O)c2c(n1)NCC(CNc1ccc(C(=O)N[C@@H](CCC(=O)O)C(=O)O)cc1)C2 (stereo in doubt; 7a) [listing 2 of 2 here]
- Km app [38]: 1.06 µM
- k [4]: 170
